Each structure is given as a SMILES string.

The values below come from US7504420B2, “Compounds which inhibit beta-secretase activity and methods of use” (CoMentis, Inc., priority 2005, dated 2009).

Test [1] addresses memapsin 2 (Homo sapiens, UniProt P56817). Put plainly: Inhibition of memapsin 2 catalytic activity (Ki). Format: biochemical. The note with it: memapsin 2, pH 4, 37° C.; read-out: M2K. In a few lines:
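Run at 37 °C and pH 4: compound and enzyme pre-incubated 20 min before FS-2 fluorogenic substrate started hydrolysis,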

Test [2] deals with Aβ production in Chinese hamster ovary cells that over-express human APP695 with the London and Swedish mutations. Put plainly: Cellular Aβ IC50 determination (Aβ40 sandwich ELISA). The note with it: Cricetulus griseus, CHO, 24 h, read-out: Cell, Aβ40, CHO cells over-expressing human APP695 (London and Swedish mutations), 24 h.
Test [3] addresses cathepsin D (Homo sapiens, UniProt P07339). Put plainly: Inhibition of cathepsin D catalytic activity (Ki). The conditions noted are these: pH 4.0, 37° C., read-out: CDK. Format: biochemical.
For test [4], the target named is T1, memapsin 1 (Homo sapiens, UniProt Q9Y5Z0).
T1 sequence (Q9Y5Z0 63-518): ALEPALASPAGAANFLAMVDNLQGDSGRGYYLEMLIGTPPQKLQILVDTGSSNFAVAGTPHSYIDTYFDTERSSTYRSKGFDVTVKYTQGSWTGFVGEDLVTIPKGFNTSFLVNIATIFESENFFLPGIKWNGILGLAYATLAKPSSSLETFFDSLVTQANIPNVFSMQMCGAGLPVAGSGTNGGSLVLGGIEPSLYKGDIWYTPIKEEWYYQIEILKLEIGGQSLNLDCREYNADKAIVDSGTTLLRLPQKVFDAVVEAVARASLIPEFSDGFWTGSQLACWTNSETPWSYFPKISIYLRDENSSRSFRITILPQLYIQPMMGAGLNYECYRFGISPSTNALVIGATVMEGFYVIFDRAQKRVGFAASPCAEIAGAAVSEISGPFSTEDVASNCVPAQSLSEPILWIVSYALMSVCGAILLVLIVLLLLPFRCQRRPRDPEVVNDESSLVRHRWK
Nature of the test: Inhibition of memapsin 1 catalytic activity (Ki). Type of test: biochemical. The note with it: memapsin 1, pH 4.0, 37° C.; read-out: M1K.

Sequence of memapsin 2 (P56817 46-501): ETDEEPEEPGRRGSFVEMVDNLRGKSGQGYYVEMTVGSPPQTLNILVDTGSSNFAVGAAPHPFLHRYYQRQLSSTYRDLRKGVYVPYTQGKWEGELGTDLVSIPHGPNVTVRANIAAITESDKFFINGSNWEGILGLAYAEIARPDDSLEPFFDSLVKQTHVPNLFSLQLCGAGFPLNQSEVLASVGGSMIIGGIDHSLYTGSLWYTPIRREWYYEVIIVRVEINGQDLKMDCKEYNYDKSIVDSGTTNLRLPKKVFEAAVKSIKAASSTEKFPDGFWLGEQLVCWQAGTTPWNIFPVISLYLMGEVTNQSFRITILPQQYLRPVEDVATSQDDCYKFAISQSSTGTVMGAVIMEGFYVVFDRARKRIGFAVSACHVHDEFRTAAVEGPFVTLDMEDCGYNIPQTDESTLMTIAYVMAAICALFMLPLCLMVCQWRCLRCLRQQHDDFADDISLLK
Sequence of cathepsin D (P07339 65-412, species assumed): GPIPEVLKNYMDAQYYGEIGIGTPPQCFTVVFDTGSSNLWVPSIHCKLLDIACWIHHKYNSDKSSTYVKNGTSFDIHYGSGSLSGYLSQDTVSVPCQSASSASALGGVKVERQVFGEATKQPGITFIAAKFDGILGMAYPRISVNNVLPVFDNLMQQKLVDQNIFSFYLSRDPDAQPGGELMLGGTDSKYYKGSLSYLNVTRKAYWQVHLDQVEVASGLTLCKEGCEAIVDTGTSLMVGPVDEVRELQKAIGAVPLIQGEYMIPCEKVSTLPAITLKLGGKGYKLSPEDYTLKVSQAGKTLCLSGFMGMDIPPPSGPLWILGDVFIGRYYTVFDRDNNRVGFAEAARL

Turning to `CC(NC(=O)c1cc(C(=O)NC(Cc2ccccc2)C(O)CNCc2cc(F)cc(F)c2)cc(N(C)S(C)(=O)=O)c1)c1ccccc1` (stereo not shown) [N1-(4-(3,5-difluorobenzylamino)-3-hydroxy-1-phenylbutan-2-yl)-5-(N-methylmethylsulfonamido)-N3-(1-phenylethyl)isophthalamide], the Ki in test [1] is below 300 nM; in test [3], below 300 nM; in test [4] it was above 501 nM. Moreover, the IC50 in test [2] is below 1000 nM.
Turning to `COC(=O)c1cccc(CNCC(O)C(Cc2ccccc2)NC(=O)c2cc(C(=O)NC(C)c3ccccc3)cc(N(C)S(C)(=O)=O)c2)c1` (stereo not shown) [methyl 3-((2-hydroxy-3-(3-(N-methylmethylsulfonamido)-5-(1-phenylethylcarbamoyl)benzamido)-4-phenylbutylamino)methyl)benzoate], the Ki in test [1], in test [3] and in test [4] was above 501 nM throughout. Moreover, the IC50 in test [2] is below 1000 nM.
For `Cc1cccc(CNCC(O)C(Cc2ccccc2)NC(=O)c2cccc(C(=O)N(C)Cc3nc(C)cs3)c2)c1` (stereo not shown) [N1-(3-hydroxy-4-(3-methylbenzylamino)-1-phenylbutan-2-yl)-N3-methyl-N3-((4-methylthiazol-2-yl)methyl)isophthalamide], the values for the Ki in test [1], in test [3] and in test [4] were above 501 nM, below 300 nM and above 501 nM, respectively. The IC50 in test [2] was below 1000 nM.
As for `COc1cccc(CNCC(O)C(Cc2ccccc2)NC(=O)c2cc(C(=O)NN(C)c3ccccc3)cc(N(C)S(C)(=O)=O)c2)c1` (stereo not shown) [N-(3-hydroxy-4-(3-methoxybenzylamino)-1-phenylbutan-2-yl)-3-(2-methyl-2-phenylhydrazinecarbonyl)-5-(N-methylmethylsulfonamido)benzamide], the Ki in test [1] was below 300 nM; in test [3], below 300 nM; in test [4], above 501 nM. Also, the IC50 in test [2] was below 1000 nM.
